Data as given in patent US9724537B2, “Abnormal electrical conduction blocking apparatus using photodynamic therapy (PDT)” (Keio University, priority 2006, dated 2017).

What was measured:
[1] = system: rat cardiac muscle cells in primary culture; test: Pulsation and cell conditions of cardiac muscle cells in primary culture after PDT; assay type: cell-based
Description: Cardiac muscle cells in primary culture were purchased in suspension and seeded on a 96-well microplate. Cells were cultured at 37° C. under 5% CO2, and cells on days 3 and 7 of culture were used. The cardiac muscle cells in primary culture were pulsatile, and pulsations among cells were synchronizing.
Cardiac muscle cells in primary culture were adjusted to a density of 2.0×10^4 cells/well. As a photosensitizer talaporfin sodium was dissolved in a medium at various concentrations and added at a concentration of 0.1 ml/well. After 1 to 2 h of loading, laser irradiation was performed, and the medium was replaced after the completion of irradiation.
At this time, a 0.5-cm^2 irradiation field (=area of well) was irradiated with a continuous semiconductor laser beam (peak wavelength, 670.8 nm) under various conditions. […]
(§1) Laser intensity: 150 mW/cm^2
Total energy density: 1, 2, 3, 5 J/cm^2
In Table 1, 1d, 2d, and 3d refer to one, two, and three days after PDT, respectively. μg refers to the photosensitizer concentration in μg/ml. Numerical values in Table 1 are (number of samples in which pulsation restarted)/(total number of samples).

[2] = rat, cited from earlier work
[3] = system: myoblast strain H9c2 (2-1) derived from the rat cardiac muscle; test: PDT cell lethality (CCK-8) in cell strain H9c2 (2-1); assay type: cell-based
Description: Using a skeletal muscle-like myoblast strain H9c2 (2-1) derived from the rat cardiac muscle, the relationship between the photosensitizer concentration and the cell lethality and the laser output required to induce cell death were investigated.
The above-mentioned cells were subcultured in a D-MEM+10% FBS medium, confluent cells were isolated, seeded on a 96-well microplate, and cultured at 37° C. under 5% CO2 for one day.
The cultured cells were adjusted to a density of 2.0×10^4 cells/well. As a photosensitizer, talaporfin sodium was dissolved in a medium at various concentrations and added at a concentration of 0.1 ml/well. After 1 to 2 h of loading, cells were irradiated with a laser beam. After completion of irradiation, the medium was replaced.
At this time, in a 0.5-cm^2 irradiation field (=area of the well) was irradiated with a continuous semiconductor laser beam (peak wavelength, 670.8 nm) under various conditions.
After irradiation with a laser beam, 0.01 ml of Cell Counting Kit-8 (Dojindo Laboratories, hereinafter referred to as CCK-8) was added to the medium in each well, the plate was incubated for 2 h, and then absorbance was measured to obtain the cell lethality. For calculation of the cell lethality, the property of a coloring reagent in CCK-8 of producing a color upon reduction with dehydrogenase in the cell was utilized. Six samples were examined.
The experimental conditions were as follows.
(i) Relationship between photosensitizer concentration and cell lethality
Agent concentrations: 10, 20, 30, 40 μg/ml
as §1
Total energy density: 3 J/cm^2
(ii) Relationship between total energy density of laser irradiation and cell lethality
Agent concentrations: 7.5, 15 μg/ml
Total energy density: 3, 6, 9, 12 J/cm^2
(iii) Relationship between laser intensity and cell lethality

C=Cc1c(C)c2cc3nc(c(CC(=O)N[C@@H](CC(=O)O)C(=O)O)c4[nH]c(cc5nc(cc1[nH]2)C(C)=C5CC)c(C)c4C(=O)O)[C@@H](CCC(=O)O)[C@@H]3C [talaporfin sodium, mono-L-aspartyl chlorine 6]
Restart of pulsation in cardiac muscle cells: (number of samples in which pulsation restarted)/(total number of samples) ([1]; 5 μg (μg/ml), 1J, 1 d after PDT): 4/8
Restart of pulsation in cardiac muscle cells: (number of samples in which pulsation restarted)/(total number of samples) ([1]; 5 μg (μg/ml), 1J, 2 d after PDT): 8/8
Restart of pulsation in cardiac muscle cells: (number of samples in which pulsation restarted)/(total number of samples) ([1]; 5 μg (μg/ml), 1J, 3 d after PDT): 8/8
Restart of pulsation in cardiac muscle cells: (number of samples in which pulsation restarted)/(total number of samples) ([1]; 5 μg (μg/ml), 2J, 1 d after PDT): 1/8
Restart of pulsation in cardiac muscle cells: (number of samples in which pulsation restarted)/(total number of samples) ([1]; 5 μg (μg/ml), 2J, 2 d after PDT): 8/8
Restart of pulsation in cardiac muscle cells: (number of samples in which pulsation restarted)/(total number of samples) ([1]; 5 μg (μg/ml), 2J, 3 d after PDT): 8/8
Restart of pulsation in cardiac muscle cells: (number of samples in which pulsation restarted)/(total number of samples) ([1]; 5 μg (μg/ml), 3J, 1 d after PDT): 0/8
Restart of pulsation in cardiac muscle cells: (number of samples in which pulsation restarted)/(total number of samples) ([1]; 5 μg (μg/ml), 3J, 2 d after PDT): 7/8
Restart of pulsation in cardiac muscle cells: (number of samples in which pulsation restarted)/(total number of samples) ([1]; 5 μg (μg/ml), 3J, 3 d after PDT): 8/8
Restart of pulsation in cardiac muscle cells: (number of samples in which pulsation restarted)/(total number of samples) ([1]; 5 μg (μg/ml), 5J, 1 d after PDT): 0/8
Restart of pulsation in cardiac muscle cells: (number of samples in which pulsation restarted)/(total number of samples) ([1]; 5 μg (μg/ml), 5J, 2 d after PDT): 8/8
Restart of pulsation in cardiac muscle cells: (number of samples in which pulsation restarted)/(total number of samples) ([1]; 5 μg (μg/ml), 5J, 3 d after PDT): 8/8
Restart of pulsation in cardiac muscle cells: (number of samples in which pulsation restarted)/(total number of samples) ([1]; 10 μg (μg/ml), 1J, 1 d after PDT): 0/8
Restart of pulsation in cardiac muscle cells: (number of samples in which pulsation restarted)/(total number of samples) ([1]; 10 μg (μg/ml), 1J, 2 d after PDT): 8/8
Restart of pulsation in cardiac muscle cells: (number of samples in which pulsation restarted)/(total number of samples) ([1]; 10 μg (μg/ml), 1J, 3 d after PDT): 8/8
Restart of pulsation in cardiac muscle cells: (number of samples in which pulsation restarted)/(total number of samples) ([1]; 10 μg (μg/ml), 2J, 1 d after PDT): 0/8
Restart of pulsation in cardiac muscle cells: (number of samples in which pulsation restarted)/(total number of samples) ([1]; 10 μg (μg/ml), 2J, 2 d after PDT): 7/8
Restart of pulsation in cardiac muscle cells: (number of samples in which pulsation restarted)/(total number of samples) ([1]; 10 μg (μg/ml), 2J, 3 d after PDT): 8/8
Restart of pulsation in cardiac muscle cells: (number of samples in which pulsation restarted)/(total number of samples) ([1]; 10 μg (μg/ml), 3J, 1 d after PDT): 0/8
Restart of pulsation in cardiac muscle cells: (number of samples in which pulsation restarted)/(total number of samples) ([1]; 10 μg (μg/ml), 3J, 2 d after PDT): 8/8
Restart of pulsation in cardiac muscle cells: (number of samples in which pulsation restarted)/(total number of samples) ([1]; 10 μg (μg/ml), 3J, 3 d after PDT): 8/8
Restart of pulsation in cardiac muscle cells: (number of samples in which pulsation restarted)/(total number of samples) ([1]; 10 μg (μg/ml), 5J, 1 d after PDT): 1/8
Restart of pulsation in cardiac muscle cells: (number of samples in which pulsation restarted)/(total number of samples) ([1]; 10 μg (μg/ml), 5J, 2 d after PDT): 8/8
Restart of pulsation in cardiac muscle cells: (number of samples in which pulsation restarted)/(total number of samples) ([1]; 10 μg (μg/ml), 5J, 3 d after PDT): 8/8
pulsation immediately after PDT ([1]; 10 μg/ml, 3 J/cm^2): the pulsation stopped immediately after PDT
cell conditions at one day after PDT ([1]; 10 μg/ml, 3 J/cm^2, FIG. 12): no damage was observed in the cell conditions
restart of pulsation and synchronization ([1]; 10 μg/ml, 3 J/cm^2, see Table 1): the pulsation restarted, and synchronization was observed at about one to three days after experiment
Restart of pulsation in cardiac muscle cells: (number of samples in which pulsation restarted)/(total number of samples) ([1]; 15 μg (μg/ml), 1J, 1 d after PDT): 0/8
Restart of pulsation in cardiac muscle cells: (number of samples in which pulsation restarted)/(total number of samples) ([1]; 15 μg (μg/ml), 1J, 2 d after PDT): 8/8
Restart of pulsation in cardiac muscle cells: (number of samples in which pulsation restarted)/(total number of samples) ([1]; 15 μg (μg/ml), 1J, 3 d after PDT): 8/8
Restart of pulsation in cardiac muscle cells: (number of samples in which pulsation restarted)/(total number of samples) ([1]; 15 μg (μg/ml), 2J, 1 d after PDT): 0/8
Restart of pulsation in cardiac muscle cells: (number of samples in which pulsation restarted)/(total number of samples) ([1]; 15 μg (μg/ml), 2J, 2 d after PDT): 8/8
Restart of pulsation in cardiac muscle cells: (number of samples in which pulsation restarted)/(total number of samples) ([1]; 15 μg (μg/ml), 2J, 3 d after PDT): 8/8
Restart of pulsation in cardiac muscle cells: (number of samples in which pulsation restarted)/(total number of samples) ([1]; 15 μg (μg/ml), 3J, 1 d after PDT): 1/8
Restart of pulsation in cardiac muscle cells: (number of samples in which pulsation restarted)/(total number of samples) ([1]; 15 μg (μg/ml), 3J, 2 d after PDT): 8/8
Restart of pulsation in cardiac muscle cells: (number of samples in which pulsation restarted)/(total number of samples) ([1]; 15 μg (μg/ml), 3J, 3 d after PDT): 8/8
Restart of pulsation in cardiac muscle cells: (number of samples in which pulsation restarted)/(total number of samples) ([1]; 15 μg (μg/ml), 5J, 1 d after PDT): 0/8
Restart of pulsation in cardiac muscle cells: (number of samples in which pulsation restarted)/(total number of samples) ([1]; 15 μg (μg/ml), 5J, 2 d after PDT): 8/8
Restart of pulsation in cardiac muscle cells: (number of samples in which pulsation restarted)/(total number of samples) ([1]; 15 μg (μg/ml), 5J, 3 d after PDT): 8/8
restart of pulsation ([1]; 20 μg/ml, 3 J/cm^2): The pulsation did not restart permanently
cell conditions at one day after PDT ([1]; 20 μg/ml, 3 J/cm^2, FIG. 13): Associated cells were separated, and individual cells themselves shrank
average of the half-lives in plasma from 2 to 24 h ([2]; after intravenous injection): 9.6 h
average of the half-lives in plasma from 2 to 60 min ([2]; intravenous injection 10 mg/kg): 47 min
cell death vs total energy density ([3]; 7.5 μg/ml, 150 mW/cm^2, 3, 6, 9, 12 J/cm^2, FIG. 2): almost no cell death was observed
cell lethality vs total energy density ([3]; 15 μg/ml, 150 mW/cm^2, 3, 6, 9, 12 J/cm^2, FIG. 2): the greater the total energy density of laser irradiation was, the higher the cell lethality was
cell lethality at 40 μg/ml ([3]; 40 μg/ml vs 30 μg/ml, 150 mW/cm^2, 3 J/cm^2): the result did not differ from that at 30 μg/ml
cell lethality vs laser intensity ([3]; 7.5, 15 μg/ml, 3 J/cm^2, laser intensity 50 to 200 mW/cm^2, FIG. 3): the cell lethality did not change
cell lethality vs photosensitizer concentration ([3]; up to 30 μg/ml, 150 mW/cm^2, 3 J/cm^2, FIG. 1): the higher the photosensitizer concentration was, the higher the cell lethality was
